Data from ChEMBL document CHEMBL5291721, “A preclinical secondary pharmacology resource illuminates target-adverse drug reaction associations of marketed drugs” (Nat Commun, 2023).

Assays:
Thromboxane A2 receptor = target: T1, Thromboxane A2 receptor (Homo sapiens, UniProt P21731)
T1 sequence (P21731 whole entry): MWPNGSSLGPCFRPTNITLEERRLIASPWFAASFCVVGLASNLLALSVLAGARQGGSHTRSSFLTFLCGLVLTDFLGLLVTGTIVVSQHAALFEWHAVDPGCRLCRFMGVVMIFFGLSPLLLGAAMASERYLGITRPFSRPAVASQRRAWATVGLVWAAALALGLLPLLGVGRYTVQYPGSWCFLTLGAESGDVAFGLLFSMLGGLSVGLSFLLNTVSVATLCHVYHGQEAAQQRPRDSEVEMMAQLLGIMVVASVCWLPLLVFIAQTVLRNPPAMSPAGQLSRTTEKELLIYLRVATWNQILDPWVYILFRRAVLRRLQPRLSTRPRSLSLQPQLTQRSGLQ

[1] = target: T2, Alpha-1A adrenergic receptor (Homo sapiens, UniProt P35348); type: functional, cell-based
T2 sequence (P35348 whole entry): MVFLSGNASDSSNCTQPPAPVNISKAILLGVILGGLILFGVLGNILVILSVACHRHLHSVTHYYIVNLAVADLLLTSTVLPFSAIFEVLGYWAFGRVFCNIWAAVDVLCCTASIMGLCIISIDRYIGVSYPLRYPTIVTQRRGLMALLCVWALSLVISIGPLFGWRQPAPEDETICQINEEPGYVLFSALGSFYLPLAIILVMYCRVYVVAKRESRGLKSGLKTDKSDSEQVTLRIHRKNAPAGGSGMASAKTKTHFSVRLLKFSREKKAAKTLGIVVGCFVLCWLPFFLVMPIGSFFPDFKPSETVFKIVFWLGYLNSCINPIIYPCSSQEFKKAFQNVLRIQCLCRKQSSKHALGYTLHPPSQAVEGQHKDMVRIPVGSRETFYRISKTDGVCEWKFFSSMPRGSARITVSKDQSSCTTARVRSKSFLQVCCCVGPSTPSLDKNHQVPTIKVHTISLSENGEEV

[2] = target: T2, Alpha-1A adrenergic receptor
Cannabinoid receptor 1 = Cannabinoid receptor 1 (Homo sapiens, UniProt P21554); type: functional, cell-based
Sequence of Cannabinoid receptor 1 (P21554 whole entry): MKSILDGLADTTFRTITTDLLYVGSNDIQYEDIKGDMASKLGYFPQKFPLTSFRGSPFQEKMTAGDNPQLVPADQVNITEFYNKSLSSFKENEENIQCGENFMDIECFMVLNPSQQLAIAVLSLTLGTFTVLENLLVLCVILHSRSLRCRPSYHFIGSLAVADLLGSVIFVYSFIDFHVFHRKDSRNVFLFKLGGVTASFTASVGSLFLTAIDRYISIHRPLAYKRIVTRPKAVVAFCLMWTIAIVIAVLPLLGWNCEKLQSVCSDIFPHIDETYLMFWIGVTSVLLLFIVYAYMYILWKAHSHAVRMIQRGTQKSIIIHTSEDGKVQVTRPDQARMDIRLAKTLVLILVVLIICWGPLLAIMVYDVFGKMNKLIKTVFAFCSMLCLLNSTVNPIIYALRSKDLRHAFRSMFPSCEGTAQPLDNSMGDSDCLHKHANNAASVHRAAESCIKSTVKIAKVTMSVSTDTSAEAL

[3] = target: Gamma-aminobutyric acid receptor subunit alpha-1 (Rattus norvegicus, UniProt P62813)
Sequence of Gamma-aminobutyric acid receptor subunit alpha-1 (P62813 whole entry): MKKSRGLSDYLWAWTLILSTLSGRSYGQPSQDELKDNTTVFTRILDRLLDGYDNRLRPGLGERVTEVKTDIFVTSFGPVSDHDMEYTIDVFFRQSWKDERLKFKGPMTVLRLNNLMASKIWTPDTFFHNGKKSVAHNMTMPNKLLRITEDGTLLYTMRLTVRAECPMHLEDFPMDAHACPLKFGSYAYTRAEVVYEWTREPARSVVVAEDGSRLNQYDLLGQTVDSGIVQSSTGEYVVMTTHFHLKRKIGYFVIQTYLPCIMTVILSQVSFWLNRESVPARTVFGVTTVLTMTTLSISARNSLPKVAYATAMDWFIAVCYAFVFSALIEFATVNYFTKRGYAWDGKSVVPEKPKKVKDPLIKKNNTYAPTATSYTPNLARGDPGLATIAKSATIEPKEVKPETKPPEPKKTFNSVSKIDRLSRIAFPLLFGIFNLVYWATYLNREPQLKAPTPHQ

[4] = target: T3, Neuropeptide Y receptor type 1 (Homo sapiens, UniProt P25929)
T3 sequence (P25929 whole entry): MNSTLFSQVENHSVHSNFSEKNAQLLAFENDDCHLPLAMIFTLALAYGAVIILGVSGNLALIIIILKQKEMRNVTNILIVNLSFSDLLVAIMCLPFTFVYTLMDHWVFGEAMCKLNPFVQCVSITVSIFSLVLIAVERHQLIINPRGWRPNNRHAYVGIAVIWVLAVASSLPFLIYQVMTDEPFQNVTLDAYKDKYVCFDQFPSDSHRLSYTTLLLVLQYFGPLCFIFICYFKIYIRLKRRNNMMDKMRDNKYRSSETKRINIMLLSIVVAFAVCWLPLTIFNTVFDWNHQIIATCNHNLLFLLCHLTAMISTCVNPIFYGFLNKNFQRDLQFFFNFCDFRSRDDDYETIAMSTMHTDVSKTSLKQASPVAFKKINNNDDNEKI

Histamine H1 receptor = Histamine H1 receptor (Homo sapiens, UniProt P35367)
Sequence of Histamine H1 receptor (P35367 whole entry): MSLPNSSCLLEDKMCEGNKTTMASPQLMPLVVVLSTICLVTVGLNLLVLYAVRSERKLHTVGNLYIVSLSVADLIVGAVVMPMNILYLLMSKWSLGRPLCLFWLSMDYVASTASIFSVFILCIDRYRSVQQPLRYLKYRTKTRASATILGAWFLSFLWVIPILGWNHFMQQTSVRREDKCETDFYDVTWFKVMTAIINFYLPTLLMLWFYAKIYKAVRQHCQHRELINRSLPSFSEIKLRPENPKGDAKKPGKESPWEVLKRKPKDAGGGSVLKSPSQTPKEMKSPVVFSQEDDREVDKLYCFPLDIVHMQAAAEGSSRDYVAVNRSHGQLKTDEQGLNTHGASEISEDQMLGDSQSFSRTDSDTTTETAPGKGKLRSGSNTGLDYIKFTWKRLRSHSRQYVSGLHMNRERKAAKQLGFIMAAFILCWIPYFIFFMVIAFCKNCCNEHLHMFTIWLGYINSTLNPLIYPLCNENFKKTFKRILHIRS

D(3) dopamine receptor = D(3) dopamine receptor (Homo sapiens, UniProt P35462)
Sequence of D(3) dopamine receptor (P35462 whole entry): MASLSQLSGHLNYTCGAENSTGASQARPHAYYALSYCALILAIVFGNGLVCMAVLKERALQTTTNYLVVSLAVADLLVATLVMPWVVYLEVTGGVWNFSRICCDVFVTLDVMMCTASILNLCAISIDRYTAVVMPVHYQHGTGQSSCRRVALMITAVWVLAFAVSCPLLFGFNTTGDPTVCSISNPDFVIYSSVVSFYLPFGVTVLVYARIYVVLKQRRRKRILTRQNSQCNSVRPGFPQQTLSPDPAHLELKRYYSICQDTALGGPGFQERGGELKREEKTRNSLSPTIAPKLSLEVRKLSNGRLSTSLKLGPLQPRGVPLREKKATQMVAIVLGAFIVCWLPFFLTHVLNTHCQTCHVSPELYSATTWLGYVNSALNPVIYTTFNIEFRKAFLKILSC

Prothrombin = Prothrombin (Homo sapiens, UniProt P00734); type: functional
Progesterone receptor = target: T4, Progesterone receptor (Homo sapiens, UniProt P06401)
T4 sequence (P06401 whole entry): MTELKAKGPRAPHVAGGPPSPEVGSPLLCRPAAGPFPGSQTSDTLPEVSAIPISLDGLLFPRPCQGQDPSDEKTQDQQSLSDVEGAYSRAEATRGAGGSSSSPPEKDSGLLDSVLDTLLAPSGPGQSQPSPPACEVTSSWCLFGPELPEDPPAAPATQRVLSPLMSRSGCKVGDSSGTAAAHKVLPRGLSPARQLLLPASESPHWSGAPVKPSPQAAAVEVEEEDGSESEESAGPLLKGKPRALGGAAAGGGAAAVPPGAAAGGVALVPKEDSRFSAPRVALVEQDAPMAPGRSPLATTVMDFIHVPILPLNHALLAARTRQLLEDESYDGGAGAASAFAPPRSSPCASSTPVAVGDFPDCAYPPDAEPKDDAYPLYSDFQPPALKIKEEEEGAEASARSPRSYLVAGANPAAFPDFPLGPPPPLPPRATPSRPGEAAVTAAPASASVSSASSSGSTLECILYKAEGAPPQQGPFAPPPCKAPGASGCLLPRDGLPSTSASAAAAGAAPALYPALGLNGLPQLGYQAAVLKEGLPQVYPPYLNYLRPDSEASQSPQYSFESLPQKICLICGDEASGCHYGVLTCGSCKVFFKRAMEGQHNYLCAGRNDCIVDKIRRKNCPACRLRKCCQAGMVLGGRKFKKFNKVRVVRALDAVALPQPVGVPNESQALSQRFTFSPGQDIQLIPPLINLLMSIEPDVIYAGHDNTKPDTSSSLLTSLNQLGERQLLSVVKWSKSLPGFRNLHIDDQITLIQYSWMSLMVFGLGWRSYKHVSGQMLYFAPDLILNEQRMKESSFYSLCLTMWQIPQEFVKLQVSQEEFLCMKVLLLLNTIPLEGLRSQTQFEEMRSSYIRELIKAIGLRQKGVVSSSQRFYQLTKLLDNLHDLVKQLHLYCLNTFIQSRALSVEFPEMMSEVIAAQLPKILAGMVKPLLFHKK

D(1A) dopamine receptor = D(1A) dopamine receptor (Homo sapiens, UniProt P21728)
Sequence of D(1A) dopamine receptor (P21728 whole entry): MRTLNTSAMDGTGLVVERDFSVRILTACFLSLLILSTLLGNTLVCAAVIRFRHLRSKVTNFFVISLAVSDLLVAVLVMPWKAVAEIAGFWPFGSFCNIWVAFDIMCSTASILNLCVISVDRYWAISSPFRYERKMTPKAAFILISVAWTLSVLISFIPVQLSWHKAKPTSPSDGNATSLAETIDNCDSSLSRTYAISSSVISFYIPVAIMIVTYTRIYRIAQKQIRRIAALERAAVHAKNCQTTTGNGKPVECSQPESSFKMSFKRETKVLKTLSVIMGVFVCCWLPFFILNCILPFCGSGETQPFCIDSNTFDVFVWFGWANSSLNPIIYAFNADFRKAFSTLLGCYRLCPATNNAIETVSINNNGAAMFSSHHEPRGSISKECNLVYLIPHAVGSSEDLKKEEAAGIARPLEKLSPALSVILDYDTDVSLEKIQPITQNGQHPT

[5] = target: T2, Alpha-1A adrenergic receptor; type: functional, cell-based; remark: listed apart in the source
Further: assay procedure not described here.

| Structure (SMILES) | AC50 (Thromboxane A2 receptor) [µM] | AC50 [1] [µM] | AC50 [2] [µM] | AC50 (Cannabinoid receptor 1) [µM] | AC50 [3] [µM] | AC50 [4] [µM] | AC50 (Histamine H1 receptor) [µM] | AC50 (D(3) dopamine receptor) [µM] | AC50 (Prothrombin) [µM] | AC50 (Progesterone receptor) [µM] | AC50 (D(1A) dopamine receptor) [µM] | AC50 [5] [µM] |
| --- | --- | --- | --- | --- | --- | --- | --- | --- | --- | --- | --- | --- |
| CCN(CC)CCNC(=O)c1cc(Cl)c(N)cc1OC [METOCLOPRAMIDE] | > 30 | > 30 | > 10 | > 30 | > 10 | > 30 |  |  |  |  |  |  |
| CC(C)Cc1ccc(CC(=O)O)cc1 [IBUFENAC] |  | > 30 |  | > 30 |  |  | > 30 |  |  |  |  |  |
| O=C(O)c1cc(-c2ccc(F)cc2F)ccc1O [DIFLUNISAL] | > 10 |  | > 30 |  | > 10 | > 10 |  |  |  |  |  |  |
| CC(=O)c1ccc2c(c1)N(CCCN1CCN(CCO)CC1)c1ccccc1S2 [ACETOPHENAZINE] |  | 0.0045 |  | > 30 |  |  | 0.049 |  |  |  |  |  |
| CCCS(=O)(=O)Nc1ccc(F)c(C(=O)c2c[nH]c3ncc(-c4ccc(Cl)cc4)cc23)c1F [VEMURAFENIB] | > 30 | > 30 |  | > 30 | > 30 | > 30 | > 30 |  |  |  |  |  |
| NC[C@H]1CC[C@H](C(=O)O)CC1 [TRANEXAMIC ACID] | > 10 |  | > 30 |  | > 10 | > 10 |  |  |  |  |  |  |
| Cc1cc2c(cc1CC(=O)c1sccc1S(=O)(=O)Nc1onc(C)c1Cl)OCO2 [SITAXENTAN] |  |  |  |  |  |  |  | > 30 | > 30 | > 30 | > 30 |  |
| OCCN1CCN(CCCN2c3ccccc3C=Cc3ccccc32)CC1 [OPIPRAMOL] |  | 14 |  | > 30 |  | > 30 | 0.081 | 0.42 | > 30 | > 30 | 1.29 | 1.07 |
| CC[C@H](C)C(=O)O[C@H]1C[C@H](O)C=C2C=C[C@H](C)[C@H](CC[C@@H](O)C[C@@H](O)CC(=O)O)[C@H]21 [PRAVASTATIN] |  | > 30 | > 10 | > 30 | > 10 |  |  |  |  |  |  |  |
| C[C@H]1C[C@@H]2[C@H]([C@@H](O)C[C@@]3(C)[C@H]2CC[C@]3(O)C(=O)CO)[C@@]2(C)C=CC(=O)C=C12 [METHYLPREDNISOLONE] | > 10 |  | > 30 |  | > 10 | > 10 |  |  |  |  |  |  |
| NS(=O)(=O)c1cc2c(cc1Cl)NCNS2(=O)=O [HYDROCHLOROTHIAZIDE] | > 30 |  | > 10 |  | > 10 | > 30 |  |  |  |  |  |  |
| CS(=O)(=O)c1ccc([C@@H](O)[C@@H](CO)NC(=O)C(Cl)Cl)cc1 [THIAMPHENICOL] | > 30 | > 30 |  | > 30 | > 30 | > 30 |  | > 30 | > 30 | > 30 | > 30 | > 30 |
| Cc1cccc(C)c1OCC(C)N (configuration not stated) [MEXILETINE] |  | > 30 |  | > 30 |  | > 30 |  |  |  |  |  |  |
| CC(C)NNC(=O)c1ccncc1 [IPRONIAZID] |  | > 30 |  | > 30 |  |  |  |  |  |  |  |  |
| NC1=NC(=O)C(c2ccccc2)O1 (configuration not stated) [PEMOLINE] | > 30 |  | > 10 |  | > 10 | > 30 |  |  |  |  |  |  |
| CN1CCCC(n2nc(Cc3ccc(Cl)cc3)c3ccccc3c2=O)CC1 (configuration not stated) [AZELASTINE] |  | 1.1 |  | > 30 |  |  |  |  |  |  |  |  |
| NC[C@H]1O[C@H](O[C@H]2[C@H](O)[C@@H](O[C@H]3O[C@H](CO)[C@@H](O)[C@H](N)[C@H]3O)[C@H](N)C[C@@H]2N)[C@H](O)[C@@H](O)[C@@H]1O [KANAMYCIN] | > 10 | > 30 | > 30 |  | > 10 | > 10 |  |  |  |  |  |  |
| COC(=O)N[C@H](C(=O)N1CCC[C@H]1c1nc(-c2ccc(-c3ccc(-c4c[nH]c([C@@H]5CCCN5C(=O)[C@@H](NC(=O)OC)C(C)C)n4)cc3)cc2)c[nH]1)C(C)C | > 30 | > 30 |  |  | > 30 | > 30 | > 30 |  |  |  |  |  |
| COc1cc(Nc2c(C#N)cnc3cc(OCCCN4CCN(C)CC4)c(OC)cc23)c(Cl)cc1Cl [BOSUTINIB] | > 30 |  |  |  |  | > 30 | > 10 | 3.01 | > 30 | 7.75 | 4.64 |  |
| CC(C)(C(=O)c1cccnc1)c1cccnc1 [METYRAPONE] | > 10 |  | > 10 |  | > 10 | > 10 |  |  |  |  |  |  |
| CC(=O)OCC(=O)[C@@]1(O)CC[C@H]2[C@@H]3CCC4=CC(=O)CC[C@]4(C)[C@H]3C(=O)C[C@@]21C [CORTISONE ACETATE] |  | > 30 |  | > 30 | > 30 |  |  |  | > 30 |  |  |  |
| NC(=O)c1ncn([C@@H]2O[C@H](CO)[C@@H](O)[C@H]2O)c1O [MIZORIBINE] |  | > 30 |  | > 30 |  | > 30 | > 30 |  |  |  |  |  |
| COc1ccc2c(c1)C(=O)N(CCc1ccc(S(=O)(=O)NC(=O)NC3CCCCC3)cc1)C(=O)C2(C)C [GLIQUIDONE] | 11 | > 30 |  |  | > 30 | > 30 | > 30 |  |  |  |  |  |
| C(=N\NC1=NCCN1)/c1c2ccccc2c(/C=N/NC2=NCCN2)c2ccccc12 [BISANTRENE] |  |  |  |  |  |  |  | 5.96 | > 30 | > 30 | 5.24 | 1.47 |
| OCc1cc([C@@H](O)CNCCCCCCOCCOCc2c(Cl)cccc2Cl)ccc1O [VILANTEROL] |  |  |  | > 30 |  |  | > 30 |  |  |  |  |  |
| O=C(NC[C@H]1CN(c2ccc(N3CCOCC3=O)cc2)C(=O)O1)c1ccc(Cl)s1 [RIVAROXABAN] |  | > 30 |  |  |  |  | > 30 | > 30 |  | > 30 | > 30 | > 3 |
| N[C@@H](C(=O)N[C@@H]1C(=O)N2C(C(=O)O)=C(Cl)CS[C@H]12)c1ccccc1 [CEFACLOR ANHYDROUS] |  | > 30 |  | > 30 |  | > 30 | > 30 |  |  |  |  |  |
| CCC(=O)O[C@H]1[C@H](O[C@@H]2[C@@H](C)[C@H](O[C@H]3C[C@@](C)(OC)[C@@H](O)[C@H](C)O3)[C@@H](C)C(=O)O[C@H](CC)[C@@](C)(O)[C@H](O)[C@@H](C)C(=O)[C@H](C)C[C@@]2(C)O)O[C@H](C)C[C@@H]1N(C)C [ERYTHROMYCIN PROPIONATE] |  |  |  |  |  |  |  | 12.9 | > 30 | 10.4 | > 30 |  |
